Measured values as given in article PMC5062470, “The mGluR2 positive allosteric modulator, SAR218645, improves memory and attention deficits in translational models of cognitive symptoms associated with schizophrenia” (Scientific Reports, 2016).

What was measured:
Sprague-Dawley rats = test: Amphetamine-induced disruption of auditory evoked potentials (AEP); type: in vivo
Text: All recordings were made using Spike2 software (Cambridge Electronic Design, Cambridge, UK) running on a Windows PC connected to a 1401 interface (Cambridge Electronic Design, Cambridge, UK). EEG recordings were created by connecting the skull plug to an amplifying head stage (AI 1401, Axon Instruments, Union City, CA, USA), via a 6-channel commutator and cable (Plastics One, Roanoke, VA, USA). The signal was then further amplified with a multichannel amplifier (Cyberamp 380, Axon Instruments, Union City, CA, USA). Auditory stimuli were controlled by the interface via an eight channel power amplifier (SA8, Tucker Davis Technologies, Alachua, FL) connected to a patch panel (PP16, Tucker Davis Technologies), which was connected to speakers located above each cage (TDT Magnetic Speakers, Tucker Davis Technologies). During recording sessions, animals were placed inside standard mouse cages (30 × 15 × 15 cm) and rigged so that the six channel cables could connect with the rest of the apparatus outside of the cage.
Male Sprague-Dawley rats (150–180 g at arrival) were anesthetized with 3% isoflurane and their scalp was shaved and prepared for surgery. An incision was made in the scalp and the skin was retracted to allow direct contact with the skull surface. The skull was cleaned with a dry Q-tip and five holes were drilled through the skull. Three holes were drilled at coordinates AP + 1 mm, ML + 1 mm (reference); AP−4 mm, ML ± 4 mm (leads 1 and 2) relative to bregma, while an additional hole was drilled in the frontal area (ground) and another hole was drilled at the midpoint between the anterior and posterior coordinate (anchor). […]
AEP data analysis: Data were collected and analyzed using Spike2 software (CED Software, Cambridge, UK). […] Then a horizontal cursor was placed at the highest and lowest (peak and trough) point of the P1/N1 wave, for both the wave occurring to the first tone (S1) and to the second tone (S2), and the value was recorded into an Excel spreadsheet. […]

human mGluR2 = human mGluR2 (Homo sapiens, UniProt Q14416); test: Multispan Allosteric Profiling panel, Ca2+ (Gqi5), control experiment; type: cell-based; conditions: increasing concentrations of SAR218645; Gqi5 cells
Chain of human mGluR2 (Q14416 19-872): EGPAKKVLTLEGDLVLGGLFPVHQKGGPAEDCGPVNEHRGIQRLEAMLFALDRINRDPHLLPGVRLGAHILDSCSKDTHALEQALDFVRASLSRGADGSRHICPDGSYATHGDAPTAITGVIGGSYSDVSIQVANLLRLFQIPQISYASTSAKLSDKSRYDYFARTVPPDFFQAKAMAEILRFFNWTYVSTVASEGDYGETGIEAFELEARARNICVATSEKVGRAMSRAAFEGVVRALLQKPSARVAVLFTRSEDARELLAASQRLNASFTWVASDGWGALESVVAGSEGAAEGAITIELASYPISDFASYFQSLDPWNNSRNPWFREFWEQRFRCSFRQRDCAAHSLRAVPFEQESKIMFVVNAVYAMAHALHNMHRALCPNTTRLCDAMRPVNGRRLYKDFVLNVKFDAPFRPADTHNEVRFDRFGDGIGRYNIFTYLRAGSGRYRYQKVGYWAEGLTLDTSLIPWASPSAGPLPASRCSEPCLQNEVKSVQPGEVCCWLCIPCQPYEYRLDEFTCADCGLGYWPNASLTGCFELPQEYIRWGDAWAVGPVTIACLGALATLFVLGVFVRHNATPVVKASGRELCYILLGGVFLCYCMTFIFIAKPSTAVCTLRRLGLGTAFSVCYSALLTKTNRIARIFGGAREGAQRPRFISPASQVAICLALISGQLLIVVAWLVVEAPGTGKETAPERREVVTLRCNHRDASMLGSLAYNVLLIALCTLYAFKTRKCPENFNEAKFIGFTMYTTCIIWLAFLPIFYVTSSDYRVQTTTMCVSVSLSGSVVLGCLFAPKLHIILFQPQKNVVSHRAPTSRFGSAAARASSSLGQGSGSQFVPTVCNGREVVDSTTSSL

CC1(C)CCc2cc(OC[C@@H]3Cn4ccc(=O)nc4O3)ccc21 [SAR218645, (S)-2-(1,1-dimethyl-indan-5-yloxymethyl)-2,3-dihydro-oxazolo[3,2-a]pyrimidin-7-one]
effect on amphetamine-disrupted auditory gating (S2/S1 ratio) (Sprague-Dawley rats; 0.3 and 3 mg/kg po, amphetamine 3 mg/kg): attenuated amphetamine-induced disrupted gating
Minimal active dose (Sprague-Dawley rats; dose-range 0.3–3, po, Sprague-Dawley rats): 0.3 mg/kg
effect on glutamate response (human mGluR2): leftward shift
